Test results reported in patent EP0409499A2, “Pharmaceutical compositions” (BRITISH TECHNOLOGY GROUP LIMITED, priority 1989, dated 1991).

What was measured:
growing rats = assay: Cardioprotective effect against the toxicity of doxorubicin (heart rate and cardiac output in rats); assay type: in vivo; conditions: relative to saline + saline control
Method: The following compounds were selected to be tested for their cardioprotetive effect against the toxicity of doxorubicin. The compounds tested were: 1,3-bis(3,5-dioxopiperazin-1-yl)-propane 1,2-bis(2-methyl-3,5-dioxopiperazin-1-yl)-ethane 1,2-bis(3,5-dioxopiperazin-1-yl)-butane.
Groups of growing rats were injected intra-peritoneally (i.p.) with 100 mg/kg or 400 mg/kg body weight of the compound. After 1 hour, doxorubicin solution was injected intravenously (i.v.) at a concentration of 4 mg/kg body weight. Other groups of rats were injected with saline (i.p.) followed after 1 hour by saline (i.v.) or with saline (i.p.) followed after 1 hour by doxorubicin solution (i.v.) as controls. The cardiotoxicity of doxorubicin and the protection supplied by the compounds was assessed by measuring the heart rate and cardiac output relative to the saline + saline control. Cardiac output was measured by injecting ^99mTc into the heart and measuring the rate at which the isotope was cleared from the heart. Heart rate was measured in the standard manner.
The results are shown in the Table below from which it will be seen that each of the compounds results in an improvement in cardiac output and heart rate as compared with the depressed values which occur when only doxorubicin is used. TABLE

[1] = result in words, Herman et al, Adv. Pharmacol. Chemother. 1982, 19, 249; cited from earlier work
[2] = result in words, Herman et al, Res. Commun. Chem. Pathol. Pharmacol. 1985, 48, 39; cited from earlier work
[3] = compound 100 mg/kg i.p., 1 hour later doxorubicin 4 mg/kg i.v.
[4] = compound 100 mg/kg i.p., 1 hour later doxorubicin 4 mg/kg i.v., 99mTc clearance from the heart
[5] = saline i.p., 1 hour later doxorubicin 4 mg/kg i.v. alone

Row | Structure (SMILES) | Relative Heart Rate (growing rats; [3]) | Relative Cardiac Output (growing rats; [4]) | also measured
1 | CCC(CN1CC(=O)NC(=O)C1)N1CC(=O)NC(=O)C1 (racemic) [1,2-bis(3,5-dioxopiperazin-1-yl)-butane, dl-1,2-bis(3,5-dioxopiperazin-1-yl)-butane] | 0.98 ± 0.03 | 0.70 ± 0.05 | Relative Heart Rate (growing rats; compound 400 mg/kg i.p., 1 hour later doxorubicin 4 mg/kg i.v.): 0.92 ± 0.04; Relative Cardiac Output (growing rats; compound 400 mg/kg i.p., 1 hour later doxorubicin 4 mg/kg i.v., 99mTc clearance from the heart): 0.67 ± 0.05
2 | CC1C(=O)NC(=O)CN1CCN1CC(=O)NC(=O)C1C (stereo not drawn) [1,2-bis(2-methyl-3,5-dioxopiperazin-1-yl)-ethane] | 0.99 ± 0.03 | 0.62 ± 0.05 | 
3 | O=C1CN(CCCN2CC(=O)NC(=O)C2)CC(=O)N1 [1,3-bis(3,5-dioxopiperazin-1-yl)-propane] | 0.81 ± 0.12 | 0.56 ± 0.06 | 
4 | CC(CN1CC(=O)NC(=O)C1)N1CC(=O)NC(=O)C1 (stereo not drawn) [ICRF 159] |  |  | reducing high dose daunorubicin toxicity versus doxorubicin toxicity [1]: consistently more effective in reducing high dose daunorubicin toxicity than doxorubicin toxicity
5 | O=C1CN(CCN2CC(=O)N(CN3CCOCC3)C(=O)C2)CC(=O)N1CN1CCOCC1 [bimolane] |  |  | protective effect against acute daunorubicin toxicity [2]: give protection against the lethal effects of daunorubicin
6 | COc1cccc2c1C(=O)c1c(O)c3c(c(O)c1C2=O)C[C@@](O)(C(=O)CO)C[C@@H]3O[C@H]1C[C@H](N)[C@H](O)[C@H](C)O1 [doxorubicin, reference compound] |  |  | Relative Cardiac Output (growing rats; [5]): 0.41 ± 0.04; Relative Heart Rate (growing rats; [5]): 0.65 ± 0.19
